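Results reflect a 48-hour exposure of cells in 96-well plates to compound at five concentrations. At the GI50, growth is halved. TGI: concentration producing complete growth inhibition.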
Assays:
Assay in all cases: NCI anticancer screen, dose series, 48 h
NCI/ADR-RES ovarian = system: NCI/ADR-RES ovarian
T-47D breast = system: T-47D breast
786-0 renal = system: 786-0 renal
SF-539 CNS = system: SF-539 CNS
CAKI-1 renal = system: CAKI-1 renal
MALME-3M melanoma = system: MALME-3M melanoma
SNB-19 CNS = system: SNB-19 CNS
MOLT-4 leukemia = system: MOLT-4 leukemia
HOP-92 NSCLC = system: HOP-92 NSCLC
EKVX NSCLC = system: EKVX NSCLC

In the case of `Cc1cc(O)cc(C)c1/C=C/c1cncc(C(=O)OC(C)(C)C)c1`, the GI50 (NCI/ADR-RES ovarian) is reported as 14.6 µM, the TGI (NCI/ADR-RES ovarian) is reported as greater than 25 µM and the GI50 (T-47D breast) is reported as 10.7 µM. The TGI (T-47D breast) was greater than 25 µM, the GI50 (786-0 renal) was 19.1 µM and the TGI (786-0 renal) was greater than 25 µM. It also gave a GI50 (SF-539 CNS) greater than 18.5 µM, a TGI (SF-539 CNS) greater than 25 µM and a GI50 (CAKI-1 renal) of 12.3 µM. The TGI (CAKI-1 renal) was greater than 25 µM, the GI50 (MALME-3M melanoma) was greater than 16.6 µM and the TGI (MALME-3M melanoma) was greater than 25 µM. It also gave a GI50 (SNB-19 CNS) greater than 25 µM, a TGI (SNB-19 CNS) greater than 25 µM and a GI50 (MOLT-4 leukemia) of 15 µM. For the same molecule, the TGI (MOLT-4 leukemia) was greater than 25 µM, the GI50 (HOP-92 NSCLC) was 4.01 µM and the TGI (HOP-92 NSCLC) was 18.8 µM. It also gave a GI50 (EKVX NSCLC) of 12.6 µM and a TGI (EKVX NSCLC) greater than 25 µM.

`Oc1c2c(c(O)c3ccccc13)C1(N=N2)c2ccccc2Oc2ccccc21` gave a TGI (NCI/ADR-RES ovarian) of 33.4 µM, a TGI (T-47D breast) of 47.8 µM and a TGI (786-0 renal) of 11.5 µM. It also gave a TGI (SF-539 CNS) of 20.2 µM, a TGI (CAKI-1 renal) of 26.5 µM and a TGI (MALME-3M melanoma) of 9.28 µM. The TGI (SNB-19 CNS) was 32.4 µM, the TGI (MOLT-4 leukemia) was greater than 100 µM and the TGI (HOP-92 NSCLC) was 31 µM. For the same molecule, the TGI (EKVX NSCLC) was 28.3 µM.

`CN(C)c1ccc(C(=C2C=CC(=[N+](C)C)C=C2)c2ccccc2Cl)cc1` showed a GI50 (NCI/ADR-RES ovarian) of 1.89 µM, a TGI (NCI/ADR-RES ovarian) of 14.8 µM and a GI50 (T-47D breast) of 0.188 µM. The TGI (T-47D breast) was 0.901 µM, the GI50 (786-0 renal) was 0.341 µM and the TGI (786-0 renal) was 1.13 µM. It also gave a GI50 (SF-539 CNS) of 0.259 µM, a TGI (SF-539 CNS) of 0.951 µM and a GI50 (CAKI-1 renal) of 0.455 µM. For the same molecule, the TGI (CAKI-1 renal) was 2.76 µM, the GI50 (MALME-3M melanoma) was 0.266 µM and the TGI (MALME-3M melanoma) was 1.05 µM. For the same molecule, the GI50 (SNB-19 CNS) was 0.348 µM, the TGI (SNB-19 CNS) was 1.29 µM and the GI50 (MOLT-4 leukemia) was 0.593 µM. The TGI (MOLT-4 leukemia) was 12.9 µM, the GI50 (HOP-92 NSCLC) was 0.302 µM and the TGI (HOP-92 NSCLC) was 1.35 µM. For the same molecule, the GI50 (EKVX NSCLC) was 0.162 µM and the TGI (EKVX NSCLC) was 1.45 µM.

For `CCCC#CCOC(=O)c1cc([N+](=O)[O-])cc([N+](=O)[O-])c1`, the TGI (NCI/ADR-RES ovarian) was greater than 100 µM, the TGI (T-47D breast) was greater than 100 µM and the TGI (786-0 renal) was greater than 100 µM. For the same molecule, the TGI (SF-539 CNS) was greater than 100 µM, the TGI (CAKI-1 renal) was greater than 100 µM and the TGI (MALME-3M melanoma) was 69.1 µM. It also gave a TGI (SNB-19 CNS) greater than 100 µM, a TGI (MOLT-4 leukemia) greater than 100 µM and a TGI (HOP-92 NSCLC) greater than 100 µM. The TGI (EKVX NSCLC) was greater than 100 µM.

`CCN(CC)c1ccc(/C=C/C=C(/C#N)C(N)=S)cc1` showed a GI50 (NCI/ADR-RES ovarian) of 3.85 µM, a TGI (NCI/ADR-RES ovarian) greater than 100 µM and a GI50 (T-47D breast) of 2.96 µM. The TGI (T-47D breast) was greater than 100 µM, the GI50 (786-0 renal) was 2.76 µM and the TGI (786-0 renal) was 8.69 µM. For the same molecule, the GI50 (SF-539 CNS) was 12.3 µM, the TGI (SF-539 CNS) was 31.3 µM and the GI50 (CAKI-1 renal) was 31.8 µM. The TGI (CAKI-1 renal) was greater than 100 µM, the GI50 (MALME-3M melanoma) was 32 µM and the TGI (MALME-3M melanoma) was greater than 100 µM. It also gave a GI50 (SNB-19 CNS) of 40.4 µM, a TGI (SNB-19 CNS) greater than 100 µM and a GI50 (MOLT-4 leukemia) of 2.19 µM. The TGI (MOLT-4 leukemia) was 12 µM, the GI50 (HOP-92 NSCLC) was 10.8 µM and the TGI (HOP-92 NSCLC) was 71.3 µM. The GI50 (EKVX NSCLC) was 6.5 µM and the TGI (EKVX NSCLC) was greater than 100 µM.

Work on `O=c1cc(O)c2c(O)cc(O)cc2o1` yielded a TGI (NCI/ADR-RES ovarian) greater than 100 µM, a TGI (T-47D breast) greater than 100 µM and a TGI (786-0 renal) greater than 100 µM. The TGI (SF-539 CNS) was greater than 100 µM, the TGI (CAKI-1 renal) was greater than 100 µM and the TGI (MALME-3M melanoma) was greater than 100 µM. For the same molecule, the TGI (SNB-19 CNS) was greater than 100 µM, the TGI (MOLT-4 leukemia) was greater than 100 µM and the TGI (HOP-92 NSCLC) was greater than 100 µM. It also gave a TGI (EKVX NSCLC) greater than 100 µM.

Molecule `N#C/C(=C\c1cccc2cnccc12)N1N=NC2C=CC=CC21` (stereo not given) has a GI50 (NCI/ADR-RES ovarian) of 3.53 µM, a TGI (NCI/ADR-RES ovarian) greater than 100 µM and a GI50 (T-47D breast) of 0.582 µM. For the same molecule, the TGI (T-47D breast) was 6.4 µM, the GI50 (786-0 renal) was 3.33 µM and the TGI (786-0 renal) was greater than 100 µM. The GI50 (SF-539 CNS) was 2.65 µM, the TGI (SF-539 CNS) was 9.23 µM and the GI50 (CAKI-1 renal) was 1.7 µM. It also gave a TGI (CAKI-1 renal) greater than 100 µM, a GI50 (MALME-3M melanoma) of 3.24 µM and a TGI (MALME-3M melanoma) greater than 100 µM. The GI50 (SNB-19 CNS) was 6.29 µM, the TGI (SNB-19 CNS) was greater than 100 µM and the GI50 (MOLT-4 leukemia) was 3.21 µM. It also gave a TGI (MOLT-4 leukemia) greater than 100 µM, a GI50 (HOP-92 NSCLC) of 0.532 µM and a TGI (HOP-92 NSCLC) of 5.13 µM. It also gave a GI50 (EKVX NSCLC) of 2.63 µM and a TGI (EKVX NSCLC) greater than 100 µM.

Reference: PubChem BioAssay (NCI)
